Literature values in patent US20030134846A1, “Treatment of trypanosoma brucei with farnesyl protein transferase inhibitors” (Schering Corporation, priority 2001, published 2003).

Settings: patients treated for second stage infection; can lead to death

Nc1nc(N)nc(Nc2ccc([As]3SCC(CO)S3)cc2)n1 (stereo not shown) [melarsoprol]
reactive encephalopathy, occurrence in patients: 5-10%
